# Source: article PMC8306139, “A Novel Dialkylamino-Functionalized Chalcone, DML6, Inhibits Cervical Cancer Cell Proliferation, In Vitro, via Induction of Oxidative Stress, Intrinsic Apoptosis and Mitotic Catastrophe” (Molecules, 2021)
# Tests used:
# Type in all cases: cell-based
# caspase-3 = assay: Western blot, cleaved caspase-3; settings: OV2008, 5 or 20 µM, vs vehicle
# Experimental: The OV2008 cells were lysed to obtain total cellular protein fractions using Mammalian Protein Extraction Reagent (Catalog # 78501, M-PER™, Thermo Fisher Scientific, Waltham, MA, USA). The cells were seeded in […] at a density of 1 × 10^6 and incubated with 5 or 20 µM of DML6 or 1 µM of doxorubicin (Catalog # T1-2-, TargetMol, Boston, MA, USA) (a positive control) for 24 h. The following day, the cells were washed with ice-cold PBS, scraped using a cell scrapper and collected in Eppendorf tubes. The tubes were centrifuged at 1500 RPM at 4 °C for 5 min. The solution was discarded and replaced with 70 µL of the cell lysis buffer (M-PER reagent, 100 mM Sodium Orthovanadate (NaOV) at a final concentration of 2.5 mM) and a 100X protease inhibitor cocktail (Catalog # P8340, Sigma-Aldrich, St. Louis, MO, USA, final concentration of 1X, containing of aprotinin, bestatin, E-64, leupeptin and pepstatin). Thirty minutes later, the resulting solution was centrifuged at 10,000 RPM at 4 °C for 5 min and the supernatant was collected. The protein concentration of the cell extracts was determined using the bicinchoninic acid (BCA) (Catalog # 786-570, G-Biosciences, Saint Louis, MO, USA) quantification assay. […] Finally, the amount of protein in each blot was quantified using the Image J software (NIH, Bethesda, MD, USA). All data were calculated as a ratio to β-actin.
# OV2008 cells [1] = assay: Cell cycle analysis, flow cytometry with propidium iodide; settings: for percentage of cells in the G2 phase / percentage of cells in the G1 phase: 24 h; for percentage of cells in the G2 phase: vehicle 4.18%; for percentage of cells in the G1 phase: vehicle 85.99%
# Experimental: Cell cycle analysis was conducted using flow cytometry cell cycle analysis with propidium iodide (PI) as previously described. OV2008 cells were plated into 6-well plates at 2.5 × 10^5 cells/well. The cells were incubated with the vehicle, 5 or 20 μM of DML6 for 24 h. The next day, the cells were trypsinized with 0.25% trypsin, 2.21 mM EDTA, 1X, washed, counted, and resuspended in 1ml of ice-cold PBS. The cells were then stained with 200 µL (50 µg/ml stock solution propidium iodide (PI) dye and incubated for at least 15 min. The distribution of the cells in each phase of the cell cycle after incubation with the vehicle or DML6 was determined using A BD FACSCanto™ flow cytometer (BD Biosciences, Becton-Dickinson, San Jose, CA, USA) and analyzed using FCS Express 7 plus De Novo software (Glendale, CA, USA).
# LOVO = assay: MTT assay, LOVO; settings: Homo sapiens, LoVo, 72 h, read-out: IC50 ± SD Colon LOVO
# Experimental: The concentration of the tested compounds that produced a 50% inhibition of cell growth (IC50) was determined.
# A panel of cancer cell lines, including cervical (OV2008 and HeLa), breast (MDA-MB-231), lung (A549) and colon (LOVO), prostate (DU145), human embryonic kidney cells (HEK293), human colon fibroblast cells (CRL1459), and Chinese hamster ovary cells (CHO), were grown as adherent monolayers in flasks containing Dulbecco’s modified Eagle medium (DMEM), supplemented with 10% fetal bovine serum (FBS) and 1% penicillin and streptomycin, in a humidified incubator with 5% CO2 at 37 °C.
# The cells were seeded evenly (180 μL/well) in 96-well plates, at a density of 3000–5000 cells/well and incubated with serial dilutions of the compounds ranging from 0.1 to 100 μM. The MTT dye (4 mg/ml) was added after 72 h of incubation and incubated with the cells for an additional 4 h at 37 °C, allowing the viable cells to biotransform the yellow-colored MTT into dark-blue formazan crystals. Following incubation, the medium was aspirated, and the formazan crystals were dissolved by adding 100 μL of DMSO to each well. Cytation™ 5 and Cytation™ 7 multi-mode detector (Bio Tek Instruments, Winooski, VT, USA) was used to determine the absorbance readings at a wavelength of 570 nm. The IC50 values were determined based on 3 separate experiments, with each experiment carried out in triplicate.
# OV2008 cells [2] = assay: Reactive oxygen species detection (H2DCFDA); settings: 5 or 20 μM, 24 h, vs vehicle
# Experimental: The total intracellular level of reactive oxygen species (ROS) was determined by staining the cells with 2,7-dichlorofluorescein diacetate (H2DCFDA). In this assay, cellular esterases cleave the nonfluorescent H2DCFDA molecule to yield H2DCF, by removing the lipophilic moiety (a diacetate group). Subsequently, H2DCF is oxidized by ROS to 2′-7′dichlorofluorescein (DCF), which is a highly fluorescent dye. ROS levels were quantified based on the fluorescence level of DCF detected using EVOS microscope.
# The compound, […] (H2DCFDA), was used to detect ROS as previously described. OV2008 cells were seeded at a density of 250,000 cells/ml. After 24 h of incubation with the vehicle, 5 or 20 µM of DML6, the cells were incubated with H2DCFDA for 30 min at 37 °C. The cells were washed 3 times with 1X PBS for 5 min. The levels of reactive oxygen species were then determined based on the fluorescence level of the oxidized DCFDA dye (excitation at 485 nm and emission at 535), using a EVOS digital fluorescent microscope at 20× magnification.
# OV2008 cells [3] = assay: Apoptosis and mitochondrial membrane potential (MitoTracker Red / Alexa Fluor 488 annexin V); settings: 24 h; for percentage of apoptotic cells in quadrant II (Q2): vehicle 8.41%; for percentage of live cells in quadrant I (Q1): vehicle 90.86%
# Experimental: MitoTracker® Red and Alexa Fluor 488 annexin V kits for flow cytometry (Molecular Probes Inc., Eugene, OR, USA) were used to determine the mitochondrial membrane potential and apoptosis, respectively, in OV2008 cells, as previously described. OV2008 cells were seeded in 6-well plates and incubated with the vehicle, 5 or 20 μM of DML6 for 24 h. The following day, the cells were trypsinized using 0.25% trypsin, 2.21 mM EDTA, 1×, counted and 4 μL of 10 μM MitoTracker® Red working solution was added to 1 mL of the harvested cells. The cells were incubated at 37 °C with 5% CO2 for 30 min. The cells were washed with ice-cold phosphate-buffered saline (PBS), followed by cell resuspension in 100 μL of the annexin binding buffer. The cell suspensions were then incubated with 5 μL of Alexa Fluor 488 annexin V for 15 min, followed by adding 400 μL of the annexin-binding buffer. Finally, flow cytometry was used to detect the fluorescence of stained cells at the following excitation/emission maximum: Alexa Fluor® 488 annexin V: 499/521 nm; MitoTracker® Red: 579/599 nm, using a flow cytometer BD FACSCanto™ (BD Biosciences, Becton-Dickinson, San Jose, CA, USA) and analyzed using FCS Express 7 plus De Novo software (Glendale, CA, USA).
structure (smiles),measurement,setting,value
"CN(C)c1ccc(/C=C/C(=O)c2ccc(Cl)cc2Cl)cc1 [DML6, (E)-1-[2,4-dichlorophenyl]-3-(4-(dimethylamino)phenyl)prop-2-en-1-one]",cleavage (activation) of caspase-3,caspase-3,significantly increased the cleavage
same,percentage of cells in the G2 phase,OV2008 cells [1]; 5 μM,42.56%
same,percentage of cells in the G1 phase,OV2008 cells [1]; 5 μM,16.01%
same,percentage of cells in the G2 phase,OV2008 cells [1]; 20 μM,59.96%
same,percentage of cells in the G1 phase,OV2008 cells [1]; 20 μM,27.84%
same,change of percentage of cells in the sub G1 phase,"OV2008 cells [1]; 5 or 10 µM, vs vehicle",neither 5 or 10 µM of DML6 significantly altered
same,IC50,LOVO,65 ± 49.5 µM
same,levels of DCF fluorescence (ROS),OV2008 cells [2],significantly higher
same,percentage of apoptotic cells in quadrant II (Q2),OV2008 cells [3]; 5 µM,41.38%
same,percentage of live cells in quadrant I (Q1),OV2008 cells [3]; 5 µM,53.39%
same,percentage of apoptotic cells in quadrant II (Q2),OV2008 cells [3]; 20 µM,73.67%
same,percentage of live cells in quadrant I (Q1),OV2008 cells [3]; 20 µM,22.37%
